Assay [1] has as its target PI3Kα (Homo sapiens (Human), UniProt P42336). The assay is described as follows: Inhibition of PI3Kα efficacy assay (ADP-Glo kinase assay). It is filed as biochemical. The conditions noted are these: Table 1; read-out: PI3Kα inhibitory activity (IC50). An outline of the steps: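 ADP-Glo luminescent detection of ADP from PI3Kα acting on PI substrate with ATP, 60 min at RT; compounds in 8-point five-fold serial dilution from 2 mM DMSO stock. IC50 from four-parameter variable-slope fit.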

In assay [2] the target is PI3Kδ (Homo sapiens (Human), UniProt O00329). Description: Inhibition of PI3Kδ efficacy assay (ADP-Glo kinase assay). The conditions noted are these: Table 1; read-out: PI3Kδ inhibitory activity (IC50). The format is biochemical. The method, boiled down: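 Luminescent ADP-Glo readout of PI3Kδ: after a 60 min RT reaction with PI/ATP substrate, ATP depletion (40 min) and ADP detection (40 min) steps followed. Compounds tested as eight five-fold serial dilutions; inhibition rates fitted to log(inhibitor) vs. response, variable slope, for IC50.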
Sequence of PI3Kδ (O00329 whole entry): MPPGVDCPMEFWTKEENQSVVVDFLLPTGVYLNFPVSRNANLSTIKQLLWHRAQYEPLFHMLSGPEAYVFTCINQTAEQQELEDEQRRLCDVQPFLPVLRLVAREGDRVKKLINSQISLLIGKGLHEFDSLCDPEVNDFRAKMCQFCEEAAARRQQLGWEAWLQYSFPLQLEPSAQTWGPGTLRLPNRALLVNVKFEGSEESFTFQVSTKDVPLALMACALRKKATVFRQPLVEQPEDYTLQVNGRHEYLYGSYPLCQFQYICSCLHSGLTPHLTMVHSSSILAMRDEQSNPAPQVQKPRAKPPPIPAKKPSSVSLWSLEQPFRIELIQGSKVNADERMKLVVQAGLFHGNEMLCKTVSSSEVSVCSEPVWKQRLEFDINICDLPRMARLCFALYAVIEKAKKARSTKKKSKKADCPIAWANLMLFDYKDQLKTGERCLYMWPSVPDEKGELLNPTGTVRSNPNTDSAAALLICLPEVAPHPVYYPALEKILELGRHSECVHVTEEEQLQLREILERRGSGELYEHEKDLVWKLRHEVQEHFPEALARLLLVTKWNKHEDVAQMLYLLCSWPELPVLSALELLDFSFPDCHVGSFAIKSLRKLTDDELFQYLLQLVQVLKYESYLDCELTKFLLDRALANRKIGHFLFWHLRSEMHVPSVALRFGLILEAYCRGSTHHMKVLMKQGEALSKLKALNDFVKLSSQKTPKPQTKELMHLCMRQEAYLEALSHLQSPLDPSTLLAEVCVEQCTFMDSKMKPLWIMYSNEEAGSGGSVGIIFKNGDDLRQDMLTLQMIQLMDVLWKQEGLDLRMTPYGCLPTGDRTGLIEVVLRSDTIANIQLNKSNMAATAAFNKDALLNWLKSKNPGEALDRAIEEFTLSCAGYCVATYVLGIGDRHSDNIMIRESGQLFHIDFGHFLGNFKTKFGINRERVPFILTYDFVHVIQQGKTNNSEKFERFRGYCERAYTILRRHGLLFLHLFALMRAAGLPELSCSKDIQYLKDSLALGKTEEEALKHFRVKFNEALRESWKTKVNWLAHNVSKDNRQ
Sequence of PI3Kδ (P27986 whole entry partner): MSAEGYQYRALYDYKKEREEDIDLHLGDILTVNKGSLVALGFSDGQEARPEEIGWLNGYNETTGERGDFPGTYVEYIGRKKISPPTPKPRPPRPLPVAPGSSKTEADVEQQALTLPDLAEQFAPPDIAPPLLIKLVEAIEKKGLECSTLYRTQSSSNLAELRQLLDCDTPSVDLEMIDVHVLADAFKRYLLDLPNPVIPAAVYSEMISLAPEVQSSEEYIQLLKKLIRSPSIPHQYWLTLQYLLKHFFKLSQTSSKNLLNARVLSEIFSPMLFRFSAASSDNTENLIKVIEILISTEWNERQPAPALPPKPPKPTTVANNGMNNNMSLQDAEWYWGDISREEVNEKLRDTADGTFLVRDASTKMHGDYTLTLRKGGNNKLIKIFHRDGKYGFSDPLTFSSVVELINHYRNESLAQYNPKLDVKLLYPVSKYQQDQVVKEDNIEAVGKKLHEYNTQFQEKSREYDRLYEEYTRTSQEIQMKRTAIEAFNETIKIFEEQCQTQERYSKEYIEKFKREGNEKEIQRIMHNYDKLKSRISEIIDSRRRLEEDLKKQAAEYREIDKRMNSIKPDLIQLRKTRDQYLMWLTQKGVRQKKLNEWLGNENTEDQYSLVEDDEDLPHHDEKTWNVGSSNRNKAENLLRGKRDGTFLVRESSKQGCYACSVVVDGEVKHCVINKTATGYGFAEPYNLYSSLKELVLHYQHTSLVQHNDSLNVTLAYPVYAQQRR
In general terms: ADP-Glo turns the ADP formed in a reaction into a luminescent signal.

In assay [3] the target is KRAS^G12C-SOS1 (Homo sapiens (Human), UniProt P01116, G12C). The assay is described as follows: HTRF KRAS G12C/SOS1 binding assay. The settings on record: Table 5. The method, then:
Initially, a 2 mM stock solution of the test compound (dissolved in DMSO) was serially diluted in five-fold concentrations using DMSO to obtain eight working solutions 1 (200×). Subsequently, each of the eight working solutions 1 was further diluted in a 20-fold gradient by adding 5 μL into 95 μL of Diluent buffer, mixed completely with vortex mixer, resulting in eight working solutions 2 (10×). […] Subsequently, 5 μL of Anti-tag 1-Tb^3+ stock solution and 5 μL of Anti-tag2-XL665 were added to each well, mixed, and incubated at 4° C. for 3 hours. Remove the plate and read on an HTRF® compatible reader, with the excitation light wavelength set at 337 nm and readings recorded at 620 nm and 665 nm. The data results were presented as the ratio of the 665 nm signal value to the 620 nm signal value for each well, calculated as follows: […]. The inhibition rate was calculated using the following formula: […]
Data were analyzed using GraphPad Prism with log (inhibitor) vs. response-Variable Slope (four parameters) fitting calculations for IC50 values.
For orientation: TR-FRET usually uses a lanthanide donor and a delayed reading to cut background.

Assay [4] deals with MIA PaCa-2 cells (KRAS G12C mutant). Description: MIA PaCa-2 cell anti-proliferation (CellTiter-Glo). The settings on record: Homo sapiens, 72 h; MIA Paca-2 cells, 3 days, Table 7; read-out: MIA PaCa-2 (IC50). The format is cell-based. An outline of the steps:
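Viable-cell luminescence (CellTiter-Glo, ≥30 min at 25 °C) measured after a 3-day, 37 °C exposure to compounds at 9 points, 4-fold spaced, in DMEM containing 10% FBS plus 2.5% horse serum. IC50 derived versus no-inhibitor wells.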
A general note: In ATP-based viability assays light output follows the ATP content of the culture.

For assay [5], the system named is NCI-H358-AMGR drug-resistant cell line. Description: NCI-H358-AMGR drug-resistant cell proliferation inhibitory activity test. The format is cell-based. The settings on record: 72 h; NCI-H358-AMGR drug-resistant cells, 3 days incubation, CellTiter-Glo. An outline of the steps: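 Luminescent CellTiter-Glo read-out after 3-day, 37° C compound exposure (8 points, 5-fold series) of AMG510-resistant NCI-H358 cells plated at 4×10^3 per well.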

Assay [6] has as its system MIA PaCa-2-AMGR drug-resistant cell line. The assay is described as follows: MIA PaCa-2-AMGR drug-resistant cell proliferation inhibitory activity test. The settings on record: 72 h, MIA PaCa-2-AMGR drug-resistant cells, 3 days incubation, CellTiter-Glo. It is filed as cell-based. As for the experimental part: Test Example 7: Generation of MIA PaCa-2-AMGR drug-resistant cell line
MIA PaCa-2 cells were seeded and cultured at 50 to 70% confluence in six-well plate with DMEM (10% FBS+2.5% horse serum) medium at 37° C. with 5% CO2. AMG510 was added for induction at three starting concentrations of 1 nM, 10 nM and 50 nM, and the medium containing the same concentration of AMG510 was replaced every 3 days. Cells were passaged once they reached confluence. After every two passages at a given concentration of drug, the concentration was increased in a 3-fold increment until final concentrations of 1 μM for AMG510 was achieved.
MIA PaCa-2-AMGR cells in logarithmic growth phase were collected and seeded into a clear-bottom 96-well plate at a density of 4×10^3 cells per well in 80 μL of medium, and then incubated overnight at 37° C. with 5% CO2. The compounds were serially diluted 5-fold in DMSO to obtain 8 concentrations, and then further diluted with DMEM (10% FBS+2.5% horse serum) cell culture medium to obtain the working solutions (5×), 20 μL of each working solution was added to the cell culture supernatant in each well, and the plate was further incubated for 3 days at 37° C. with 5% CO2. The plate was then equilibrated with CellTiter-Glo® reagent at room temperature (25° C.) for 10-30 minutes. After aspirating 50 μL of the medium, 50 μL of CellTiter-Glo® reagent was added. The cells were thoroughly mixed with the CellTiter-Glo® reagent using a microplate shaker for 2 minutes, and then incubated at room temperature for 10 minutes. The 96-well plate was placed in a multi-mode microplate reader to record the luminescence values (RLU).
The inhibitory rate was calculated using the following formula: […]
Data were analyzed using GraphPad Prism for IC50 values (Note: The negative control refers to the group without inhibitor) The data were presented m Table 9

The test system of assay [7] is KRAS G12C mutation. The conditions noted are these: at the cellular level; cited from earlier work.
For assay [8], the system named is pancreatic cancer MIA-Paca2 cell subcutaneous xenograft tumor. The conditions noted are these: cited from earlier work.

Molecules are shown by their SMILES.

By IC50 is commonly meant the concentration needed to halve the response being measured.

Sequence of PI3Kα (P42336 whole entry): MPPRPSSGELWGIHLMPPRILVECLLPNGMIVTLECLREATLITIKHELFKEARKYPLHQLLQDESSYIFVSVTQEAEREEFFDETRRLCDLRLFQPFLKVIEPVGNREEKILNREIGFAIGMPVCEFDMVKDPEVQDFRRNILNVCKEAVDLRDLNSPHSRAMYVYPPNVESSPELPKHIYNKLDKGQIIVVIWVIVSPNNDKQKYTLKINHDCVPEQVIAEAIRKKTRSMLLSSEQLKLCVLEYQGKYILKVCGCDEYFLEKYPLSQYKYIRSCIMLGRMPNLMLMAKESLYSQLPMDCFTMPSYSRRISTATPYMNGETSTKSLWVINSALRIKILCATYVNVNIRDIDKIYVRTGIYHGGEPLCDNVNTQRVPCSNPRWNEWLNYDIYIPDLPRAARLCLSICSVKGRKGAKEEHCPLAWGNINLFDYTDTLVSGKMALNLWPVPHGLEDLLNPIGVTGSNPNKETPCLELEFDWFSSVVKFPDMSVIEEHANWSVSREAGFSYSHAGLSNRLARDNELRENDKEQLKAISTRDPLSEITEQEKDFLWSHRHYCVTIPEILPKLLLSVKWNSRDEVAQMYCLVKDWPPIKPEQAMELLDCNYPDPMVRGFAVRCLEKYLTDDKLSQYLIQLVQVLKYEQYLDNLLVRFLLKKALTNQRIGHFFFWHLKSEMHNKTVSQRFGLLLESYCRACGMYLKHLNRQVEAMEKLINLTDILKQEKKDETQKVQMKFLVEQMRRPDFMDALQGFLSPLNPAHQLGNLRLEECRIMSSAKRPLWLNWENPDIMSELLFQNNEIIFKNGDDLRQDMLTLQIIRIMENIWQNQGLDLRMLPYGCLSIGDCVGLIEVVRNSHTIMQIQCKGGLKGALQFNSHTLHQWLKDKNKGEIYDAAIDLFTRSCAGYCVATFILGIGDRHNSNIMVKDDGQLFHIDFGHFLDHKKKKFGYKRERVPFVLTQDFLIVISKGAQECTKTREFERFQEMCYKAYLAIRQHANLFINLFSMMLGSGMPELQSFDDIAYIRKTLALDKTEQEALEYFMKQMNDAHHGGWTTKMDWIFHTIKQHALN
Sequence of PI3Kα (P27986 whole entry partner): as the sequence (P27986 whole entry partner) above
Sequence of KRAS^G12C-SOS1 (P01116-2 other isoform, or with tags, fused parts or gaps G12C): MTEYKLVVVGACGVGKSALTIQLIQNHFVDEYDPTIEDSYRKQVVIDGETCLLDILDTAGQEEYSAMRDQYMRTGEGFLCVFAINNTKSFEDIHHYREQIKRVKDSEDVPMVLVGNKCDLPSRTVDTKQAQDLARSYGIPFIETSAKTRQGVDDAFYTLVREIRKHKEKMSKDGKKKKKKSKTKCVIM

For the molecule `COc1ncc(-c2ccc3ncnc(N4CCN(C(=O)/C=C/C(C)=O)CC4)c3c2)cc1NS(=O)(=O)c1ccc(Cl)s1` [Example 38, (E)-5-chloro-N-(2-methoxy-5-(4-(4-(4-oxopent-2-enoyl)piperazin-1-yl)quinazolin-6-yl)pyridin-3-yl)thiophene-2-sulfonamide], the IC50 in assay [1] amounted to 1.5 nM; in assay [2], 14.7 nM; in assay [3], 807 nM; in assay [4], 59.8 nM; in assay [5], 51.1 nM; in assay [6], 216 nM.

For `C=CC(=O)N1CCN(c2ncnc3c(F)c(-c4c(O)cccc4F)c(Cl)cc23)CC1` [ARS-1620], the cellular anti-proliferative activity result in assay [7] is listed as “nM-level”. Besides, the tumor growth inhibition entry in assay [8] is on record as “effectively inhibit tumor growth”.
